# Measurements: patent US10238648B2 (priority 2014, dated 2019)
# Structures can show the parent of a compound that is named as a salt. Where two headings read alike, the source gives them in different places.
# Experiments:
# [1] = cited from earlier work
# [2] = oral dose x bioavailability
# Source text: [formula] [formula] [formula] Dual Penetration Enhancer Formulations
# [3] = Permeation of abuse-deterrent (naloxone) formulations through separating membrane and placebo opioid layer, 72 h diffusion study; format: in vitro ADME; settings: from abuse deterrent layer NLX-2014-01-011
# Description: The ability of abuse-deterrent layer formulations to migrate into the oxymorphone layer was investigated. A placebo oxymorphone layer was prepared and two abuse-deterrent formulations (NLX-2014-01-011 and NLX-2014-01-012) were tested with different separating layers. The appearance of both formulations was uniform and aesthetically pleasing. When assembled, no distinguishable layers could be observed and the layers themselves were inseparable. Patches of size 0.95 cm^2 patches were punched out from the release liner side of the assembled roll.
# Insofar as NLX-2014-01-011 is concerned, while two cells did show permeation from the abuse deterrent layer, this was probably due to the abuse deterrent layer contacting the skin, as by the end of the experiment almost no permeation was observed.
# [4] = test system: sedation in dogs; settings: 4.5 mg intravenous dose reversed by 1.2 mg intravenous naloxone; cited from earlier work
smiles,measurement,setting,value
COc1ccc2c3c1O[C@H]1C(=O)CC[C@H]4[C@@H](C2)N(C)CC[C@]314 [Hydrocodone],Bioavailability,[1]; po,80%
COc1ccc2c3c1O[C@H]1C(=O)CC[C@@]4(O)[C@@H](C2)N(C)CC[C@]314 [Oxycodone],Bioavailability,[1]; oral,87%
CN1CC[C@]23c4c5ccc(O)c4O[C@H]2C(=O)CC[C@@]3(O)[C@H]1C5 [Oxymorphone],Dose after first pass effect,[2],4.0 mg/day
C=CCN1CC[C@]23c4c5ccc(O)c4O[C@H]2C(=O)CC[C@@]3(O)[C@H]1C5 [naloxone hydrochloride],permeability of the antagonist in the system,[3],largely impermeable
C=CCN1CC[C@]23c4c5ccc(O)c4O[C@H]2C(=O)CC[C@@]3(O)[C@H]1C5 [naloxone],reversal of oxymorphone sedation,[4],reversed
